From patent publication EP0186181A2, “Uses for enprostil” (SYNTEX (U.S.A.) INC., priority 1984, dated 1986)
Like-named read-outs stand apart in the source and are kept apart here.

Key:
serum glucose [1] = test: Serum glucose after standard breakfast, study lasting up to 44 days (Example VIII); assay type: in vivo, human; settings: 35 µg BID, standard breakfast 30 minutes after dose
Description: 20 subjects participated in a study lasting up to 44 days. On day -8, all 20 subjects received a placebo capsule followed 30 minutes later by a standard breakfast with serial blood measurements. Eight days later all 20 subjects were randomized to either enprostil […] BID or placebo and continued dosing for a period of 30 days. On days 1, 8, and 30, they were given enprostil followed 30 minutes later by a standard breakfast with serial blood measurements.

serum cholesterol [2] = test: Effect of orally administered enprostil on serum cholesterol, five weeks (Example I); assay type: in vivo, human
Description: A group of 20 patients with high cholesterol baseline were orally given 70 µg enprostil twice daily. […] The median change for the group was 16 percent reduction, with 60 percent of the patients tested showing a significant reduction in serum cholesterol.
A second group of 16 patients with a high cholesterol baseline were given 35 µg enprostil twice daily.
A third group of 13 individuals were given a placebo. […] The median change was a 2 percent increase in cholesterol.

serum GIP = test: Serum GIP after meal stimulus, double blind crossover study (Example IV); assay type: in vivo, human; settings: 70 µg orally 30 minutes before meal; placebo showed a four fold increase
Description: Serum GIP levels are known to increase after meals.
Groups of 10 subjects participated in a double blind, crossover study. Either the placebo or 70 µg enprostil was orally given 30 minutes before meal time and levels of GIP were measured.

serum cholesterol [3] = test: 44 day dosing placebo controlled trial, serum cholesterol (Example III); assay type: in vivo, human
Description: In a 44 day dosing study 20 subject participated in a placebo controlled trial. Ten subjects received enprostil and the remainder received placebo. […] Similarly there was a 46% reduction in their LDL cholesterol from 140 mg/dl to 75 mg/dl. This subject was normocholesterolemic at baseline and no dietary manipulation was attempted.

[4] = tested on: serum insulin and glucose; test: Serum insulin and glucose after meal, double blind crossover study (Example V); assay type: in vivo, human; settings: orally 30 minutes before meal
Description: A group of 10 subjects participated in a double blind crossover study. Either a placebo or enprostil was orally given 30 minutes before meal time and levels of insulin and glucose were measured after the meal.

[5] = tested on: serum cholesterol, LDL cholesterol, HDL cholesterol, apoproteins; test: 9-day placebo controlled cross-over study in normal subjects: cholesterol, LDL, HDL, apoproteins (Table 2); assay type: in vivo, human; set-up: Mean reduction of cholesterol / Mean reduction of LDL cholesterol / Mean reduction of HDL cholesterol / Mean reduction of apoprotein A / Mean reduction of apoprotein B: concentration or dose not given beside the values; settings: 9-day cross-over
Description: To further clarify the nature of these changes in a prospective manner, normal subjects were dosed with enprostil for periods ranging from 8 days up to 44 days in duration.
In a 9-day placebo controlled cross-over study, with each subject serving as their own control, the mean reduction in cholesterol, Low Density Lipoprotein (LDL) cholesterol, and High Density Lipoprotein (HDL) cholesterol are shown in Table 2.
These findings are surprising since the subjects in this study were normocholesterolemic at baseline (that is serum cholesterol under 250 mg/dl) and were on a free diet with no attempt to regulate dietary cholesterol intake.

serum xylose = test: Oral d-xylose absorption, 10-day placebo controlled cross-over (Example VII); assay type: in vivo, human; settings: 70 µg enprostil per day, 5 g d-xylose orally
Description: (§1) 10 normal subjects participated in a 10-day placebo controlled cross-over receiving either placebo or […] enprostil per day. On day 1 and day 9 of each study phase they orally received 5 g of d-xylose, a sugar not normally metabolized in man. Blood measurements for serum xylose were made at -30, 0, +30, 60, 120, 180, 240, and 300 minutes following ingestion of xylose. On day 2 and day 10 of each study phase, the subjects received a 25 g intravenous glucose tolerance test, 30 minutes following enprostil administration.

[6] = tested on: serum insulin and glucose; test: Eight-day crossover study with standard breakfast: serum glucose, insulin, GIP (Example VI); assay type: in vivo, human; settings: 70 µg orally
Description: Eight healthy male subject received either 70 µg enprostil per day or placebo for eight days followed by a washout period of one week and a subsequent second eight-day administration during which they received the opposite drug regime.
On day 1 and day 8 of each study period the patients reported to the clinical studies unit fasting and were administered 70 µg of enprostil orally in a glass of water. Thirty minutes later they were administered a standard breakfast and blood samples were drawn at -30, just prior to enprostil administration, 0, at the time of enprostil administration, 15, 30, 60, 90, 120 and 180 minutes.

serum glucose [7] = test: 25 g intravenous glucose tolerance test (Example VII); assay type: in vivo, human; settings: 30 minutes following enprostil administration, day 2 and day 10
Description: as §1

serum cholesterol [8] = test: Cholesterol reduction study, 7 to 70 µg BID versus placebo (Example II, Table 1); assay type: in vivo, human
insulin levels = settings: cited from earlier work
[9] = 35 µg twice daily, of 16 patients
[10] = 70 µg twice daily, of 20 patients
[11] = of nine subjects who received enprostil
[12] = subject number 120, from 140 mg/dl
[13] = normocholesterolemic subjects, free diet
[14] = administered by tube to the duodenum

**Q.** With `COC(=O)CCC=C=CC[C@H]1C(=O)C[C@@H](O)[C@@H]1/C=C/[C@@H](O)COc1ccccc1` [enprostil] as the compound, how does the “peak blood glucose levels versus placebo” value (serum glucose [1]) read?
**A.** substantially reduced

**Q.** What about the “time of appearance of peak blood glucose levels” value (serum glucose [1]; delay from approximately 60 minutes) of the same compound?
**A.** ~90 min

**Q.** What about the “patients showing serum cholesterol reduction” value (serum cholesterol [2]; 35 µg twice daily, 16 patients) of the same compound?
**A.** 56%

**Q.** What about the “median change (reduction in serum cholesterol)” value (serum cholesterol [2]; 35 µg twice daily, 16 patients with high cholesterol baseline) of the same compound?
**A.** eleven

**Q.** And the “number of patients showing greater than 10 percent serum cholesterol reduction” value (serum cholesterol [2]; [9])?
**A.** eight

**Q.** What about the “number of patients showing greater than 25 percent reduction in serum cholesterol” value (serum cholesterol [2]; [9]) of the same compound?
**A.** one

**Q.** What about the “number of patients showing no change in serum cholesterol” value (serum cholesterol [2]; [9]) of the same compound?
**A.** seven

**Q.** And the “patients tested showing a significant reduction in serum cholesterol” value (serum cholesterol [2]; 70 µg twice daily orally, 20 patients)?
**A.** 60%

**Q.** What about the “median change for the group (reduction in serum cholesterol)” value (serum cholesterol [2]; 70 µg twice daily orally, 20 patients with high cholesterol baseline) of the same compound?
**A.** 16%

**Q.** And the “number of patients showing greater than 10 percent reduction in serum cholesterol” value (serum cholesterol [2]; [10])?
**A.** eleven

**Q.** And the “number of patients showing greater than 25 percent reduction in serum cholesterol” value (serum cholesterol [2]; [10])?
**A.** one

**Q.** And the “number of patients showing no change in serum cholesterol” value (serum cholesterol [2]; [10])?
**A.** eight

**Q.** And the “increase in serum GIP 60 minutes after the meal stimulus” value (serum GIP)?
**A.** no increase

**Q.** What about the “number of individuals with a reduction in total and LDL cholesterol throughout the entire 44 day period” value (serum cholesterol [3]; [11]) of the same compound?
**A.** Three

**Q.** And the “number of subjects showing a reduction of total cholesterol by 16 days” value (serum cholesterol [3]; [11])?
**A.** Six

**Q.** What about the “reduction of total serum cholesterol” value (serum cholesterol [3]; subject number 120, day 44 versus mean baseline of 208 mg/dl) of the same compound?
**A.** 43%

**Q.** What about the “LDL cholesterol after dosing” value (serum cholesterol [3]; [12]) of the same compound?
**A.** 75 mg/dL

**Q.** What about the “reduction in LDL cholesterol” value (serum cholesterol [3]; [12]) of the same compound?
**A.** 46%

**Q.** What about the “total serum cholesterol at day 44” value (serum cholesterol [3]; subject number 120, mean baseline 208 mg/dl) of the same compound?
**A.** 123 mg/dL

**Q.** And the “raise in glucose levels after the meal” value [4]?
**A.** no statistically or clinically significant raise

**Q.** And the “increase of insulin levels after the meal” value ([4]; placebo five fold)?
**A.** two

**Q.** And the “change in total triglycerides” value [5]?
**A.** essentially no change

**Q.** What about the “Mean reduction of HDL cholesterol” value [5, 13] of the same compound?
**A.** -9.2%

**Q.** What about the “Mean reduction of LDL cholesterol” value [5, 13] of the same compound?
**A.** -21.0%

**Q.** What about the “Mean reduction of apoprotein A” value [5, 13] of the same compound?
**A.** -1.8%

**Q.** What about the “Mean reduction of apoprotein B” value [5, 13] of the same compound?
**A.** -16.0%

**Q.** And the “Mean reduction of cholesterol” value [5, 13]?
**A.** -15.0%

**Q.** What about the “reduction in the amount of xylose excreted over 5 hours” value (serum xylose) of the same compound?
**A.** 30%

**Q.** What about the “peak serum xylose levels” value (serum xylose; days 1 and 9) of the same compound?
**A.** marked suppression and delay

**Q.** And the “amount of xylose excreted over 5 hours” value (serum xylose; versus 1.8g)?
**A.** 1.3 g

**Q.** And the “serum GIP” value ([6]; both study days)?
**A.** essentially complete inhibition

**Q.** What about the “serum insulin concentrations for each time point” value ([6]; day 1 and 8) of the same compound?
**A.** marked reduction

**Q.** What about the “reduction of area under the serum glucose by time curve compared to the placebo phase” value ([6]; day 1 and day 8) of the same compound?
**A.** 15-20%

**Q.** And the “serum glucose by time curves following intravenous glucose administration, versus placebo” value (serum glucose [7])?
**A.** no marked differences

**Q.** What about the “Cholesterol % decrease (combined 2-12 week of dosing)” value (“Cholesterol % decrease” below) (serum cholesterol [8]; 7 µg BID, 9 subjects) of the same compound?
**A.** 67%

**Q.** What about the “Median % change (cholesterol)” value (serum cholesterol [8]; 7 µg BID, 9 subjects) of the same compound?
**A.** -11%

**Q.** And the “Cholesterol % decrease” value (serum cholesterol [8]; 35 µg BID, 28 subjects)?
**A.** 64%

**Q.** And the “Median % change (cholesterol)” value (serum cholesterol [8]; 35 µg BID, 28 subjects)?
**A.** -13%

**Q.** What about the “Cholesterol % decrease” value (serum cholesterol [8]; 70 µg BID, 28 subjects) of the same compound?
**A.** 64%

**Q.** What about the “Median % change (cholesterol)” value (serum cholesterol [8]; 70 µg BID, 28 subjects) of the same compound?
**A.** -17%

**Q.** Which results are given for `CCCCC[C@](C)(O)/C=C/[C@H]1[C@H](O)CC(=O)[C@@H]1C/C=C\CCCC(=O)OC` [15S, 15 methyl PGE2 methyl ester]?
**A.** insulin levels (insulin levels; [14]): lowered insulin levels; serum glucose levels (insulin levels; [14]): no change; time to peak serum glucose levels (insulin levels; intraduodenally or intravenously): no change; glucose levels (insulin levels; intravenous administration): without affecting glucose levels; insulin levels (insulin levels; intravenous administration): lowered insulin levels
